Results on 20 compounds are retold here after patent US8158794B2, “Hydroxyalkyl substituted imidazoquinoline compounds and methods” (3M Innovative Properties Company, priority 2005, dated 2012).

The subject of one data set is interferon (α) (IFN-α). As to the kind of experiment: Cytokine induction in human cells: IFN-α secreted by PBMC (ELISA). To be noted: median if more than one experiment; for minimal effective concentration: lowest tested concentration inducing response over 20 pg/mL, read-out: Minimum Effective Concentration (μM) IFN; for Maximal Response (pg/mL) IFN: background-subtracted, reference-adjusted. The class given is cell-based. Also on record: key to Maximal Response (pg/mL) IFN: *: Below experimental background level. An excerpt: (§1) An in vitro human blood cell system is used to assess cytokine induction. Activity is based on the measurement of interferon (α) and tumor necrosis factor (α) (IFN-α and TNF-α, respectively) secreted into culture media as described by Testerman et. al. in “Cytokine Induction by the Immunomodulators Imiquimod and S-27609”, Journal of Leukocyte Biology, 58, 365-372 (September, 1995).
(§2) Whole blood from healthy human donors is collected by venipuncture into vacutainer tubes or syringes containing EDTA. Peripheral blood mononuclear cells (PBMC) are separated from whole blood by density gradient centrifugation using HISTOPAQUE-1077 (Sigma, St. Louis, Mo.) or Ficoll-Paque Plus (Amersham Biosciences Piscataway, N.J.). Blood is diluted 1:1 with Dulbecco's Phosphate Buffered Saline (DPBS) or Hank's Balanced Salts Solution (HBSS). Alternately, whole blood is placed in Accuspin (Sigma) or LeucoSep (Greiner Bio-One, Inc., Longwood, Fla.) centrifuge frit tubes containing density gradient medium. The PBMC layer is collected and washed twice with DPBS or HBSS and re-suspended at 4×10^6 cells/mL in RPMI complete. The PBMC suspension is added to 96 well flat bottom sterile tissue culture plates containing an equal volume of RPMI complete media containing test compound.
(§3) The compounds are solubilized in dimethyl sulfoxide (DMSO). The DMSO concentration should not exceed a final concentration of 1% for addition to the culture wells. The compounds are generally tested at concentrations ranging from 30-0.014 μM. Controls include cell samples with media only, cell samples with DMSO only (no compound), and cell samples with reference compound.
(§4) The solution of test compound is added at 60 μM to the first well containing RPMI complete and serial 3 fold dilutions are made in the wells. The PBMC suspension is then added to the wells in an equal volume, bringing the test compound concentrations to the desired range (usually 30-0.014 μM). The final concentration of PBMC suspension is 2×10^6 cells/mL. The plates are covered with sterile plastic lids, mixed gently and then incubated for 18 to 24 hours at 37° C. in a 5% carbon dioxide atmosphere.
(§5) Following incubation the plates are centrifuged for 10 minutes at 1000 rpm (approximately 200×g) at 4° C. The cell-free culture supernatant is removed and transferred to sterile polypropylene tubes. Samples are maintained at −30 to −70° C. until analysis. The samples are analyzed for IFN-α by ELISA and for TNF-α by IGEN/BioVeris Assay.
IFN-α concentration is determined with a human multi-subtype colorimetric sandwich ELISA (Catalog Number 41105) from PBL Biomedical Laboratories, Piscataway, N.J. Results are expressed in pg/mL.
(§6) In total, the data output of the assay consists of concentration values of TNF-α and IFN-α(y-axis) as a function of compound concentration (x-axis).
Analysis of the data has two steps. First, the greater of the mean DMSO (DMSO control wells) or the experimental background (usually 20 pg/mL for IFN-α and 40 pg/mL for TNF-α) is subtracted from each reading. If any negative values result from background subtraction, the reading is reported as “*”, and is noted as not reliably detectable. In subsequent calculations and statistics, “*”, is treated as a zero. Second, all background subtracted values are multiplied by a single adjustment ratio to decrease experiment to experiment variability. The adjustment ratio is the area of the reference compound in the new experiment divided by the expected area of the reference compound based on the past 61 experiments (unadjusted readings). […] The reference compound used is 2-[4-amino-2-ethoxymethyl-6,7,8,9-tetrahydro-α,α-dimethyl-1H-imidazo[4,5-c]quinolin-1-yl]ethanol hydrate (U.S. Pat. No. 5,352,784; Example 91) and the expected area is the sum of the median dose values from the past 61 experiments.
The minimum effective concentration is calculated based on the background-subtracted, reference-adjusted results for a given experiment and compound. […]
(In general: ELISA stands for enzyme-linked immunosorbent assay.)

The test system of data set [1] is tumor necrosis factor (α) (TNF-α). As to the kind of experiment: Cytokine induction in human cells: TNF-α secreted by PBMC (ORIGEN M-Series immunoassay). On the set-up: key to Maximal Response (pg/mL) TNF: *: Below experimental background level. The class given is cell-based. To be noted: median if more than one experiment; for minimal effective concentration: lowest tested concentration inducing response over 40 pg/mL, read-out: Minimum Effective Concentration (μM) TNF; for Maximal Response (pg/mL) TNF: background-subtracted, reference-adjusted.
From the text: as §1, §2, §3, §4, §5
The TNF-α concentration is determined by ORIGEN M-Series Immunoassay and read on an IGEN M-8 analyzer from BioVeris Corporation, formerly known as IGEN International, Gaithersburg, Md. The immunoassay uses a human TNF-α capture and detection antibody pair (Catalog Numbers AHC3419 and AHC3712) from Biosource International, Camarillo, Calif. Results are expressed in pg/mL.
as §6
Analysis of the data has two steps. First, the greater of the mean DMSO (DMSO control wells) or the experimental background (usually 20 pg/mL for IFN-α and 40 pg/mL for TNF-α) is subtracted from each reading. If any negative values result from background subtraction, the reading is reported as “*”, and is noted as not reliably detectable. In subsequent calculations and statistics, “*”, is treated as a zero. Second, all background subtracted values are multiplied by a single adjustment ratio to decrease experiment to experiment variability. The adjustment ratio is the area of the reference compound in the new experiment divided by the expected area of the reference compound based on the past 61 experiments (unadjusted readings). […]

Usually melting point stands for the temperature of the solid-liquid transition.

Molecules are shown by their SMILES. Counter-ions that a name gives are not always drawn. Like-named read-outs stand apart in the source and are kept apart here.

In turn, `CS(=O)(=O)N1CCC(Cn2c(CO)nc3c(N)nc4cc(-c5cncc(CO)c5)ccc4c32)CC1` (as salt: HBr) (hydrate or solvate) [Example 44] had a melting point of more than 300 °C.
Same read-out and setting: to `CC(C)C(=O)N1CCC(Cn2c(CO)nc3c(N)nc4cc(-c5cncc(CO)c5)ccc4c32)CC1` (as salt: HBr) [Example 45] belongs more than 300 °C.
Regarding `CCc1nc2c(N)nc3cc(-c4cccnc4)ccc3c2n1CC(C)(C)O` [Analog 1, 1-(4-amino-2-ethyl-7-pyridin-3-yl-1H-imidazo[4,5-c]quinolin-1-yl)-2-methylpropan-2-ol, reference compound], the minimal effective concentration in the data set on interferon (α) (IFN-α) (18 to 24 hours) is 0.12 µM; in the data set with interferon (α) (IFN-α) (Table 3, 18 to 24 hours), 0.12 µM; in data set [1] (18 to 24 hours), 0.37 µM; in data set [1] (Table 3, 18 to 24 hours) it was 0.37 µM.
For the compound `CCCc1nc2c(N)nc3cc(-c4cccnc4)ccc3c2n1CC(C)(C)O` [Analog 2, 1-(4-amino-2-propyl-7-pyridin-3-yl-1H-imidazo[4,5-c]quinolin-1-yl)-2-methylpropan-2-ol, reference compound], the minimal effective concentration in the data set on interferon (α) (IFN-α) (18 to 24 hours) turned out to be 0.04 µM; in the data set on interferon (α) (IFN-α) (Table 3, 18 to 24 hours), 0.04 µM; in data set [1] (18 to 24 hours) it was 0.37 µM; in data set [1] (Table 3, 18 to 24 hours) it was 0.37 µM.
Consider `CCOCc1nc2c(N)nc3cc(-c4cccnc4)ccc3c2n1CC(C)(C)O` [Analog 3, 1-(4-amino-2-ethoxymethyl-7-pyridin-3-yl-1H-imidazo[4,5-c]quinolin-1-yl)-2-methylpropan-2-ol, reference compound], for which the minimal effective concentration in the data set with interferon (α) (IFN-α) (18 to 24 hours) turned out to be 0.04 µM; in the data set on interferon (α) (IFN-α) (Table 3, 18 to 24 hours), 0.04 µM; in data set [1] (18 to 24 hours), 0.12 µM; in data set [1] (Table 3, 18 to 24 hours), 0.12 µM.
For `CC(C)(O)Cn1c(CCO)nc2c(N)nc3cc(-c4ccccc4)ccc3c21` [Example 2], the minimal effective concentration in the data set with interferon (α) (IFN-α) (18 to 24 hours) is 0.37 µM; in data set [1] (18 to 24 hours), 3.33 µM. In addition, the “Maximal Response (pg/mL) IFN” value in the data set on interferon (α) (IFN-α) (tested 30-0.014 μM) is listed as 1274 pg/mL. Also, in data set [1] (tested 30-0.014 μM), the “Maximal Response (pg/mL) TNF” value was 67 pg/mL.
On the same counts, the results for `CC(C)Cn1c(CCO)nc2c(N)nc3cc(-c4cccnc4)ccc3c21` [Example 3] are 0.37 µM, 3.33 µM, 1180 pg/mL and 42 pg/mL.
As for `CC(C)Cn1c(CCO)nc2c(N)nc3cc(-c4cncc(CO)c4)ccc3c21` [Example 4], the minimal effective concentration with interferon (α) (IFN-α) (18 to 24 hours) was found to be 0.12 µM; in data set [1] (18 to 24 hours) it was 10 µM. In addition, in the data set on interferon (α) (IFN-α) (tested 30-0.014 μM), the “Maximal Response (pg/mL) IFN” value is given as 1891 pg/mL. In addition, the “Maximal Response (pg/mL) TNF” value in data set [1] (tested 30-0.014 μM) is reported as 349 pg/mL.
Consider `CC(C)(O)Cn1c(CO)nc2c(N)nc3cc(-c4cccnc4)ccc3c21` [Example 8], for which the minimal effective concentration with interferon (α) (IFN-α) (18 to 24 hours) is 0.37 µM; in the data set with interferon (α) (IFN-α) (Table 3, 18 to 24 hours) it was 1.11 µM; in data set [1] (18 to 24 hours), 10 µM; in data set [1] (Table 3, 18 to 24 hours), more than 30 µM. Also, the “Maximal Response (pg/mL) IFN” value with interferon (α) (IFN-α) (Table 3, tested 30-0.014 μM) is recorded as 2251 pg/mL; in the data set on interferon (α) (IFN-α) (tested 30-0.014 μM) it was 2886 pg/mL. In addition, the “Maximal Response (pg/mL) TNF” value was “* (Below experimental background level of 40/pg mL)” in data set [1] (Table 3, tested 30-0.014 μM) and 51 pg/mL in data set [1] (tested 30-0.014 μM).
Regarding `Cc1cccc(-c2ccc3c(c2)nc(N)c2nc(CO)n(CC(C)(C)O)c23)c1` [Example 9], the minimal effective concentration with interferon (α) (IFN-α) (18 to 24 hours) is reported as 30 µM; in data set [1] (18 to 24 hours), more than 30 µM. The “Maximal Response (pg/mL) IFN” value with interferon (α) (IFN-α) (tested 30-0.014 μM) is given as 87 pg/mL. The “Maximal Response (pg/mL) TNF” value in data set [1] (tested 30-0.014 μM) was “*”.
On the same counts, the results for `Cc1ccc(-c2ccc3c(c2)nc(N)c2nc(CO)n(CC(C)(C)O)c23)cc1` [Example 10] are 0.37 µM, 0.37 µM, 1681 pg/mL and 7423 pg/mL.
Taken in the same sequence, the figures for `CC(C)(O)Cn1c(CO)nc2c(N)nc3cc(-c4cccc(O)c4)ccc3c21` [Example 13] were 0.37 µM, 10 µM, 12641 pg/mL and 352 pg/mL.
In the case of `CC(C)(O)Cn1c(CO)nc2c(N)nc3cc(-c4cncc(CO)c4)ccc3c21` [Example 33], the minimal effective concentration was 0.37 µM with interferon (α) (IFN-α) (18 to 24 hours) and more than 30 µM in data set [1] (18 to 24 hours). In addition, the “Maximal Response (pg/mL) TNF” value in data set [1] (tested 30-0.014 μM) is reported as “*”.
Taken in the same sequence, the figures for `CC(C)C(=O)N1CCC(Cn2c(CO)nc3c(N)nc4cc(-c5cccnc5)ccc4c32)CC1` [Example 35] were 1.11 µM, more than 30 µM and “*”.
Regarding `CCCNC(=O)NCCCCn1c(CO)nc2c(N)nc3cc(-c4cccnc4)ccc3c21` [Example 39], the minimal effective concentration in the data set on interferon (α) (IFN-α) (18 to 24 hours) was determined as 0.37 µM; in data set [1] (18 to 24 hours), 30 µM.
As for `Nc1nc2cc(-c3cccnc3)ccc2c2c1nc(CO)n2CCCCNC(=O)NC1CCCC1` [Example 41], the minimal effective concentration was determined as 0.04 µM in the data set with interferon (α) (IFN-α) (18 to 24 hours) and 10 µM in data set [1] (18 to 24 hours).
Taken in the same sequence, the figures for `CC(C)C(=O)NCCCCn1c(CO)nc2c(N)nc3cc(-c4cccnc4)ccc3c21` [Example 43] were 0.37 µM and 10 µM.
`CC(C)C(=O)N1CCC(Cn2c(CO)nc3c(N)nc4cc(-c5cncc(CO)c5)ccc4c32)CC1` [Example 45]: the minimal effective concentration (with interferon (α) (IFN-α) (18 to 24 hours); in data set [1] (18 to 24 hours)) was more than 30 µM each time. Also, in the data set with interferon (α) (IFN-α) (tested 30-0.014 μM), the “Maximal Response (pg/mL) IFN” value is listed as “*”. The “Maximal Response (pg/mL) TNF” value in data set [1] (tested 30-0.014 μM) was “*”.
Consider `Nc1nc2cc(-c3cncc(CO)c3)ccc2c2c1nc(CO)n2CC1CCCCC1` [Example 49], for which the minimal effective concentration in the data set on interferon (α) (IFN-α) (18 to 24 hours) is 3.33 µM; in data set [1] (18 to 24 hours), more than 30 µM. For the same compound, the “Maximal Response (pg/mL) TNF” value in data set [1] (tested 30-0.014 μM) is given as “*”.
Taken in the same sequence, the figures for `Nc1nc2cc(-c3cccc(C(=O)N4CCOCC4)c3)ccc2c2c1nc(CO)n2CC1CCCCC1` [Example 50] were 1.11 µM, more than 30 µM and “*”.
